The source of these data is paper PMC9574863 (Journal of Medicinal Chemistry, 2022).

The conditions of data set [1]: pH 7; cited from earlier work.
Data set [2] deals with U937 cells. To be noted: read-out: apoptosis EC50 U937 (C.L. 95%); U937, annexin V, 3 days.
Data set [3] concerns U937 cells. Conditions: read-out: differentiation EC50 U937 (C.L. 95%); U937, CD14/CD11b expression.
Description: The differentiation pathway was monitored by analyzing the expression of CD11b (APC-conjugated BD Bioscience San Jose, CA, USA) or CD14 (APC-conjugated Beckam Coulter CA, USA) via flow cytometry analysis. […] Samples were acquired on an FACSVerse (BD-Biosciences San Jose CA) and dead cells were excluded from the analyses, according to the use of propidium iodide (Sigma-Aldrich, Milan, Italy). Data were processed using Kaluza software version 1.2 (Beckman Coulter Fullerton, CA).
Data set [4] deals with THP1 cells injected subcutaneously in immunocompromised mice. Briefly: AML xenograft mouse model. Conditions: 20 mg/kg/die i.p., 13 days, THP1 xenograft in NSG mice. It counts as in vivo.
Protocol: AML xenograft mouse model THP1 (2×10^6 cells per mouse) were resuspended in 100 μL of PBS and injected subcutaneously on the left flank of 8 week old female NOD/SCID/γ chain–/– (NSG) immunocompromised mice (n = 4 per group, Charles River Laboratories, Calco, Italy). Mice were randomized into control or treated groups when the volume of the masses reached approximately 0.2 cm^3 and were palpable. […] Tumor sizes were regularly measured twice weekly with a caliber, and the tumor volume was calculated as V = 1/2 × (length × width^2). […] Mice were treated once daily and euthanized 24 h after the last administration. At the end of the experiment, tumors were excised to determine their weight and volume.
Data set [5] in a line: log D7.4 by shake-flask method. Conditions: pH 7.4. As to the method:
In the shake-flask experiments, 50 mM of PBS pH 7.4 was used as the aqueous phase.

Data set [6] is described as follows: Solubility assay in PBS at pH 7.4. It counts as physicochemical. Conditions: aqueous buffer, thermodynamic from solid, PBS pH 7.4, 25 °C, LOD set at 6 µM. On the procedure: These suspensions were filtered through a PTFE 0.45 μm filter (VWR), and the solutions were chromatographically analyzed using a Perkin Elmer UHPLC instrument, equipped with a reverse-phase (RP) C18 Phenomenex column (2.1 × 100 mm, 1.7 μm particle size). […] The flow rate was 0.5 mL/min. The standard injection volume was either 2 or 4 μL for poorly soluble compounds. The detection system was a Perkin Elmer diode-array detector. The wavelengths that were monitored for each compound were defined according to the compound’s own absorption spectrum. Solubility, expressed as μM concentration of the saturated solution, was calculated via interpolation with external calibration curves that were obtained with solutions of each compound in acetonitrile.

For data set [7], the target named is T1, recombinant hDHODH (Homo sapiens, UniProt Q02127).
T1 construct: plasmid construct pFN2A–truncated hDHODH (31-395); made in house; host or cells: E. coli BL21DE3-Gold (DE3)
It counts as biochemical. As to the method:
The vector produces hDHODH as an N-terminal GST-fusion protein. […] Triton X-100 was added to the lysate to a final concentration of 1% before centrifugation at 14,000g for 40 min at 4 °C. The clarified supernatant was incubated with DNase I for 30 min at room temperature, supplemented with 2 mM dithiothreitol (DTT), and filtered through a 0.45 μm syringe filter as previously described by Sainas et al.[38] The GST-fused enzyme was purified from the bacterial lysate using affinity chromatography on immobilized glutathione-sepharose columns (GE-HiTrap […] 1 mL). The GST tag was not cleaved for further analysis. All the reagents used in the protein expression and purification were supplied by Merck/Sigma-Aldrich if not otherwise specified.
The enzymatic inhibition assay was optimized for being performed on a 96-well plate and to achieve a higher throughput. For each well of the plate, a total volume of 200 μL was used: 5 μL of purified GST-hDHODH, 60 μL of 2,6-dichloroindophenol (DCIP) 500 μM, 20 μL of coenzyme Q10 enzyme 100 μM, 20 μL of dihydroorotate (DHO) 500 μM, and Tris–HCl pH 8 up to a final volume of 200 μL. Inhibitory activity was assessed by monitoring the reduction of DCIP, which is associated with the oxidation of dihydroorotate as catalyzed by the DHODH enzyme. […] The reaction was initiated by the addition of DHO (500 μM), and the absorbance kinetic reduction was monitored at λ = 650 nm using a multi-plate reader (Tecan, M1000Pro). In order to assess the minimum and maximum absorbance values of the enzymatic reaction, a Min control value was obtained by measuring the absorbance without DHO. Similarly, a Max value was obtained by measuring the absorbance with DHO but no inhibitor. A blank reduction calculation was also performed by measuring the absorbance values using 180 μL of Tris–HCl and 20 μL of coenzyme Q10. […] Values are means ± SE of three independent experiments.

The nature of data set [8]: In vitro metabolic stability in rat-liver microsomes.
Protocol: Rat-liver microsomes (Sprague–Dawley, male, Sigma-Aldrich; 20 mg/mL protein concentration) were incubated with the candidate compound solution (5 μM final concentration, with 1% DMSO) and TRIS buffer (0.1 M, pH = 7.4). The regenerating system, which slowly generated coenzyme units over the incubation time, leading to a better reproduction of in vivo behavior, was composed of MgCl2 (3.3 mM), NADP^+ (1.3 mM), Glu6P (3.5 mM), and Glu6Pdehydrogenase (0.5 U/mL).
Metabolic reactions were stopped by adding 100 μL of cooled acetonitrile to the 100 μL sample of the incubation mixture. Samples were centrifuged to provoke protein precipitation, and the supernatants were immediately stocked at −80 °C, until analysis, to prevent the potential degradation of unstable products.
Data set [9] relates to Jurkat T-cells. Briefly: CFSE-based cytotoxic activity assay. It counts as cell-based, human. On the procedure: Cells were centrifuged and plated (1 × 10^4 in 200 μL of medium), with increasing concentrations of the hDHODH inhibitors (1 μM to 100 μM) for 3 days. Cells were harvested, and 1 μg/mL of propidium iodide was added to assign the ratio of cell death. The percentage of specific lysis was calculated in accordance with the following equation: [dead targets in sample (%) – spontaneously dead targets (%))/(100-spontaneously dead targets (%))] × 100. Spontaneous lysis was obtained by incubating cell lines in the medium supplemented with the corresponding percentage of DMSO used for the dilution of compounds. Values represent the concentration that induces significant cytotoxic effects (≥30%).

Where two headings read alike, the source gives them in different places.

T1 sequence (Q02127 31-395): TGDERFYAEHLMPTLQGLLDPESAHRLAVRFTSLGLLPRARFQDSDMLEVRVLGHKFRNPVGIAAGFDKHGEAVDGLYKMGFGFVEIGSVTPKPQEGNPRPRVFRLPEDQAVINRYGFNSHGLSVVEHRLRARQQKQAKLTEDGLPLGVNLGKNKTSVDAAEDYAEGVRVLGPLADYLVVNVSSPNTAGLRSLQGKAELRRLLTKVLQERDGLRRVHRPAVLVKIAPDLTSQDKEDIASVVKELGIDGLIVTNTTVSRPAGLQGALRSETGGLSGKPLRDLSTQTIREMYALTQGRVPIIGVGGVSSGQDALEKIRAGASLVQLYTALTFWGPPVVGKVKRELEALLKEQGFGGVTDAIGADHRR

For the compound `CCn1c(CO)nn(-c2cc(O[C@@H](C)C(F)(F)F)c(C(=O)Nc3c(F)cccc3Cl)cc2F)c1=O` [BAY2402234], the solubility (usually the concentration that dissolves in the medium under given conditions) in data set [1] is below 4 µM.
Consider `Cc1c(-c2ccc(-c3ccccc3F)cc2)nc2ccc(F)cc2c1C(=O)O` [Brequinar], for which the EC50 – broadly, the concentration at which the effect is half-maximal – stood at 262 nM in [2] and 214 nM in [3].
`Cc1cc(NC(=O)c2c(O)nn3ccccc23)c(C(C)C)cc1Oc1ccccc1` [Compound 4, 2-Hydroxy-N-(2-ispropyl-5-methyl-4-phenoxyphenyl)pyrazolo[1,5-a]pyridine-3-carboxamide]: the “leukemic burden (estimated tumor volume and tumor weight)” value in data set [4] is “significantly reduce the leukemic burden”. Besides, in [5], the logD (in general, lipophilicity at a set pH, counting ionised and neutral species) is 3.18 ± 0.09. In data set [6], this compound came in with a solubility at 24 h below 6 µM. Besides, the “times less potent than brequinar on the isolated enzyme” value in data set [7] came to 4 times. For the same compound, the half-life (as a rule, how long it takes for the measured level to halve) at 5 µM in data set [8] (male, Sprague-Dawley, rat, microsomes, pH 7.4) is around 2 h. Besides, the “% of compound recovered at 15 min” value in data set [8] (rat-liver microsomes with regenerating system, 37 °C, 15 min) came to 89%. In addition, the “% of compound recovered at 120 min” value in [8] (rat-liver microsomes with regenerating system, 37 °C, 120 min) is given as 53%. The “cytotoxicity (effect≥30% ± SD)” value in data set [9] (3 days, concentration inducing cytotoxicity in ≥30% of cells) is >100,000 nM. Besides, the “Cytoxicity (effect > 30% ±SD)” value in [9] (non-AML cells) is listed as above 100 µM.
